We go through 16 compounds from patent publication US20250176550A1, “HERBICIDE COMPOSITION OF URACIL COMPOUND CONTAINING CARBOXYLATE FRAGMENT AND THE USE THEREOF” (Jiangsu Flag Chemical Industry Co., Ltd., priority 2022, published 2025).

The inhibition is the percentage by which the read-out fell short of the control.

Common to all, as to experiment: Indoor virulence and combined effect, greenhouse pot test, post-emergence stem and leaf spray, fresh weight inhibition
Holding throughout (format): in vivo

For one test, the system named is veronica persica. The method, then:
(§1) The active ingredients A and B are respectively screened and an indoor combined effect of the composition on weeds was evaluated by an indoor test and a field test, to determine a combined effect of the composition on weeds.
(§2) Quantitative seeds of Poaceae weeds (echinochloa crusgalli, Digitaria sanguinalis, setaria viridis, Eleusine indica, avena fatua, alopecurus japonicus, alopecurus aequalis, Lolium multiflorum) and broadleaf weeds (eclipta prostrata, rorippa dubia, Abutilon theophrasti, conyza canadensis, veronica persica, myosoton aquaticum, polygonum lapathifolium, galium aparine var. tenerum, alisma plantago-aquatica, geranium carolinianum) were sown in paper cup containing nutrient soil with a diameter of 7 cm, covered with soil for 1 cm after sowing. After pressing and watering, they were cultured in a greenhouse according to a conventional method. Poaceae weeds grew to 3˜4 leaf stage, broad-leaved weeds grew to 4˜6 leaf stage, spraying treatment to both stem and leaf was performed; and pre-seedling soil spray treatment was performed 24 hours after sowing. Following an experimental design dosage, a WP-2000 walking spray tower (spindle speed 96 mm/r, spray height 200 mm, effective spray amplitude of nozzle 350 mm, nozzle flow rate 390 mL/min, nozzle walking speed 210 mm/s) was used for the spray treatment. The experiment was repeated three times. After being treated, a sample material is placed in an operation hall, and after the drug solution is naturally dried out, the sample material is placed in a greenhouse and managed according to the conventional method. A reaction of weeds to the drug agent is observed and recorded, and a regularly visual check of a control effect of the drug agent on weeds was performed after the treatment.
(§3) All of original drugs were using acetone as a solvent, being diluted with 0.1 wt % emulsifier of Tween-80 aqueous solution, and being diluted right before using.
(§4) When determining a ratio or content of the active ingredient A and the active ingredient B, it should be measured from characteristics of action of both agents and virulence thereof, as well as the main purpose of use of a formula shall also be considered in. In the present study, on a basis of previous pre-test, the dosages of the active ingredient A and the active ingredient B were set, when being used alone and mixed, as shown in the following table. Water containing no agent, but containing the same solvent and emulsifier was used as a blank control.
(§5) Repeat 4 times for each treatment, 3 pots per treatment each time and 30 weed seeds were sown for each pot.
(§6) Adopting an absolute number survey method, using a blade to cut the whole seedling of surviving weed along soil surface, and weighting the fresh weight of the weed with an analytical balance. For weeds that had died, counting the fresh weight as zero.
(§7) Survey period and frequency: 21 days after the treatment, total 1 investigation.
(§8) The theoretical fresh weight inhibition rate (E0-Expected Efficacy=[…]) of each treatment combination was calculated by Gowing method, and then compared with the measured inhibition rate (E-Observed Efficacy) to evaluate the combined effect type of both on weeds. When E-E0 value was greater than 10%, it was counted as a synergistic effect, less than −10%, it was counted as an antagonistic effect, and between −10%˜10%, it was counted as an additive effect. According to a plurality of factors including an actual control efficacy, a herbicide characteristic, a formula balance and other factors to determine the best ratio. In the formula, X is the fresh weight inhibition rate of the ingredient A at a dosage of P; Y is the fresh weight inhibition rate of the active ingredient B at a dosage of Q.
(§9) The statistical results are shown in Table 1 to Table 44 below, except for those marked clearly as “pre-emergence treatment”, all others are “post-emergence treatment”. […]

In a further test the test system is eclipta prostrata. The settings on record: Table 43. The protocol: as §1, §2, §3, §4, §5, §6, §7, §8, §9
The next test relates to echinochloa crusgalli. The settings on record: for inhibition at 5 g/ha: 5 g a.i./ha; for inhibition at 10 g/ha: 10 g a.i./ha. The protocol:
as §1
as §2, with “Following an experimental design dosage, a WP-2000 walking spray tower (spindle speed 96 mm/r, spray height 200 mm, effective spray amplitude of nozzle 350 mm, nozzle flow rate 390 mL/min, nozzle walking speed 210 mm/s) was used for the spray treatment.” left out, “method.” for “method. A reaction of weeds to the drug agent is observed and recorded, and a regularly visual check of a control effect of the drug agent on weeds was performed after the treatment.”
as §3, §4, §5, §6, §7
When E-E0 value was greater than 10%, it was counted as a synergistic effect, less than −10%, it was counted as an antagonistic effect, and between −10%˜10%, it was counted as an additive effect. […] In the formula, X is the fresh weight inhibition rate of the ingredient A at a dosage of P; Y is the fresh weight inhibition rate of the active ingredient B at a dosage of Q.

The subject of another test is lolium multiflorum. The method, then: as §1, §2, §3, §4, §5, §6, §7, §8, §9
[1] abbreviates: Echinochloa crus-galli, 504 h, Table 4, post-emergence, 21 days after treatment, read-out: Fresh weight inhibition rate %, B single agent.
The mark [2] stands for this setting: Echinochloa crus-galli, 504 h, Table 2, post-emergence, 21 days after treatment, read-out: Fresh weight inhibition rate %, B single agent.

Like-named read-outs stand apart in the source and are kept apart here.

Regarding `CCCCC(CC)COC(=O)COc1ccc(Cl)cc1Cl` [2,4-D-etexyl], the “Fresh weight inhibition rate %, B single agent” value (from here on “Fresh weight inhibition rate %”) in the test with veronica persica (Table 23, B 195 g a.i./ha) was found to be 30.42%; in the test on veronica persica (Table 23, B 275 g a.i./ha), 40.62%; in the test with veronica persica (Table 23, B 350 g a.i./ha), 50.28%.

On to `Cc1cc(Cl)ccc1OCC(=O)[O-].[Na+]` [MCPA-sodium], for which the results for the “Fresh weight inhibition rate %” value in the test on eclipta prostrata (B 80 g a.i./ha) and with eclipta prostrata (B 160 g a.i./ha) were 37.73% and 45.00%, respectively.

Turning to `CC(C)N1C(=O)c2ccccc2NS1(=O)=O` [bentazone-sodium], the inhibition at 300 g/ha with veronica persica (Veronica persica, 504 h, Table 9, 300 g a.i./ha, post-emergence, 21 days after treatment, read-out: Fresh weight inhibition rate %, B single agent) came out at 30.5%. The inhibition at 450 g/ha with veronica persica (Veronica persica, 504 h, Table 9, 450 g a.i./ha, post-emergence, 21 days after treatment, read-out: Fresh weight inhibition rate %, B single agent) is 41.9%. For the same compound, the inhibition at 525 g/ha with veronica persica (Veronica persica, 504 h, Table 9, 525 g a.i./ha, post-emergence, 21 days after treatment, read-out: Fresh weight inhibition rate %, B single agent) worked out at 53.3%.

For `COc1cc(OC)nc(Oc2cccc(Oc3nc(OC)cc(OC)n3)c2C(=O)O)n1` [bispyribac-sodium], in the test on echinochloa crusgalli (setting [1]), the inhibition at 5 g/ha worked out at 14.3% and the inhibition at 10 g/ha stood at 21.9%. For the same compound, the inhibition at 25 g/ha in the test on echinochloa crusgalli (Echinochloa crus-galli, 504 h, Table 4, 25 g a.i./ha, post-emergence, 21 days after treatment, read-out: Fresh weight inhibition rate %, B single agent) came to 30.1%.

With `C=CCOC(=O)C(C)(C)OC(=O)c1cc(-n2c(=O)cc(C(F)(F)F)n(C)c2=O)ccc1Cl` [butafenacil], the “Fresh weight inhibition rate %” value in the test with lolium multiflorum (Table 34, B 7.5 g a.i./ha) is listed as 29.47%; in the test with lolium multiflorum (Table 34, B 12.5 g a.i./ha), 36.55%; in the test with lolium multiflorum (Table 34, B 20 g a.i./ha), 43.60%; with lolium multiflorum (Table 34, B 30 g a.i./ha), 53.40%.

Consider `CC1(C)CON(Cc2ccccc2Cl)C1=O` [clomazone], for which, in the test on echinochloa crusgalli (Echinochloa crus-galli, 504 h, Table 17, 12.5 g a.i./ha, post-emergence, 21 days after treatment, read-out: Fresh weight inhibition rate %, B single agent), the inhibition at 12.5 g/ha is 8.42%. Also, the inhibition at 20 g/ha with echinochloa crusgalli (Echinochloa crus-galli, 504 h, Table 17, 20 g a.i./ha, post-emergence, 21 days after treatment, read-out: Fresh weight inhibition rate %, B single agent) amounted to 7.51%. Further, in the test with echinochloa crusgalli (Echinochloa crus-galli, 504 h, Table 17, 45 g a.i./ha, post-emergence, 21 days after treatment, read-out: Fresh weight inhibition rate %, B single agent), the inhibition at 45 g/ha is 10.9%.

In the case of `N#Cc1cnn(-c2nn3c(c2Cl)CCCC3)c1NCC1CC1` [cyclopyranil], the “Fresh weight inhibition rate %” value with echinochloa crusgalli (Table 37, B 12.5 g a.i./ha) is given as 24.73%; with echinochloa crusgalli (Table 37, B 20 g a.i./ha), 25.46%; in the test with echinochloa crusgalli (Table 37, B 30 g a.i./ha) it was 31.50%; with echinochloa crusgalli (Table 37, B 40 g a.i./ha), 39.05%.

Consider `CNC.COc1c(Cl)ccc(Cl)c1C(=O)O` [dicamba-dimethylammonium], for which the “Fresh weight inhibition rate %” value with veronica persica (Table 24, B 40 g a.i./ha) is given as 11.68%; in the test on veronica persica (Table 24, B 60 g a.i./ha), 25.89%; with veronica persica (Table 24, B 80 g a.i./ha), 37.82%; in the test on veronica persica (Table 24, B 100 g a.i./ha), 38.58%.

Turning to `c1cc[n+]2c(c1)-c1cccc[n+]1CC2` [diquat], the “Fresh weight inhibition rate %” value was 31.27% in the test with lolium multiflorum (Table 27, B 300 g a.i./ha); 36.44% with lolium multiflorum (Table 27, B 400 g a.i./ha); 41.37% in the test on lolium multiflorum (Table 27, B 495 g a.i./ha).

On to `CP(=O)(O)CC[C@H](N)C(=O)O.N` [glufosinate-P-ammonium], for which the “Fresh weight inhibition rate %” value with lolium multiflorum (Table 20, B 200 g a.i./ha) amounted to 8.61%; with lolium multiflorum (Table 20, B 300 g a.i./ha), 74.40%; in the test on lolium multiflorum (Table 20, B 350 g a.i./ha), 78.23%; in the test on lolium multiflorum (Table 20, B 400 g a.i./ha), 83.04%.

With `CP(=O)(O)CCC(N)C(=O)O` (stereo not shown) [glufosinate-ammonium], the “Fresh weight inhibition rate %” value was determined as 2.63% in the test with lolium multiflorum (Table 19, B 120 g a.i./ha); 12.20% in the test on lolium multiflorum (Table 19, B 210 g a.i./ha); 27.99% in the test on lolium multiflorum (Table 19, B 300 g a.i./ha); 54.64% with lolium multiflorum (Table 19, B 400 g a.i./ha).

Regarding `COCc1cnc(C2=NC(C)(C(C)C)C(=O)N2)c(C(=O)[O-])c1.[Na+]` (stereo not shown) [imazamox-sodium], the “Fresh weight inhibition rate %” value in the test with echinochloa crusgalli (Table 3, 15 g a.i./ha, post-emergence, 21 days after treatment) was determined as 2.52%; in the test with echinochloa crusgalli (Table 3, 20 g a.i./ha, post-emergence, 21 days after treatment), 13.41%.

On to `COc1cnc(OC)n2nc(NS(=O)(=O)c3c(OCC(F)F)cccc3C(F)(F)F)nc12` [penoxsulam], for which, in the test on echinochloa crusgalli (setting [2]), the inhibition at 5 g/ha came out at 7.31% and the inhibition at 10 g/ha was 18.3%.

For the compound `Nc1c(Cl)c(Cl)nc(C(=O)O)c1Cl` [picloram-potassium, picloram], the “Fresh weight inhibition rate %” value was found to be 42.89% with veronica persica (Table 26, B 450 g a.i./ha); 47.46% in the test on veronica persica (Table 26, B 525 g a.i./ha); 50.25% in the test on veronica persica (Table 26, B 600 g a.i./ha); 50.25% in the test with veronica persica (Table 26, B 600 g a.i./ha (row 2 + 600)).

With `COC(=O)CCNC(=O)C(C)Sc1cc(-n2c(=O)cc(C(F)(F)F)n(C)c2=O)c(F)cc1Cl` (stereo not shown) [tiafenacil], the “Fresh weight inhibition rate %” value with lolium multiflorum (Table 38, B 10 g a.i./ha) is recorded as 8.27%; in the test with lolium multiflorum (Table 38, B 15 g a.i./ha), 15.26%; in the test with lolium multiflorum (Table 38, B 20 g a.i./ha), 22.42%.

In the case of broclozone, the “Fresh weight inhibition rate %” value amounted to 5.86% in the test with echinochloa crusgalli (Table 44, B 50 g a.i./ha); 16.30% with echinochloa crusgalli (Table 44, B 80 g a.i./ha); 33.00% in the test with echinochloa crusgalli (Table 44, B 120 g a.i./ha); 44.95% with echinochloa crusgalli (Table 44, B 150 g a.i./ha).
